Assay results reported in patent publication US20060073589A1, “Rapid generation of activated mononuclear antigen presenting cells from monocytes” (priority 2002, published 2006).
*1 amine or outer side, *2 acyl side, *3 side chain or, on linkers, in order; H or OH if unused. Where a SMILES comes first, the peptide text is derived from it. Bridges are numbered along the chain shown (N, C = ends). Roman numbers before positions name the chains, in order. [ ]: non-standard residue; d: D form. Actinocin(9to1) = Cc1c2oc3c(C)ccc(C(=O)[*:1])c3nc-2c(C(=O)[*:2])c(N)c1=O; NMeV = CN[C@H](C(=O)O)C(C)C; Sar = CNCC(=O)O

Test system: CD83 expression on the cell membrane of monocytes
Experiment: CD83 surface expression on monocytes cultured with metabolic inhibitors
Format: cell-based, human
Details: 4 h monocyte culture, inhibitor added at beginning; actinomycin D 100 ng/ml, cyclohexamide 100 μM, brefeldin A 5 μg/ml
Procedure: The dotted line indicates the FACS profile of cells stained with isotype control mAb. The data are representative of three independent experiments.
Cells were washed and resuspended in PBS containing 1% human serum and incubated with fluorochrome-conjugated mAbs for 30 min at 4° C. The following mAbs were used for immunofluorescent staining: anti-CD14, CD80, CD4, CD25, CD54, HLA-DR (Becton Dickinson, San Jose Calif.), CD40, CD86, CD83, CD1a, CD62L, HLA A-B-C, ManR, CD58, LFA-1, CD32 (Pharmingen, San Diego, Calif.), CD2 (clone SFCI3Pt2H9; Beckman Coulter, Fullerton, Calif.), CD33 (Immunotech). Samples were collected and analysed by using a FACSort (Becton Dickinson) and data analysis was performed by CellQuest software (Becton Dickinson). Cells were electronically gated according to light scatter properties, in order to exclude cell debris and contaminating lymphocytes.
The CD83 surface expression in cells cultured in the presence of various metabolic inhibitors added at the beginning of the culture was examined.

Structure (SMILES) | inhibition of up-regulation of CD83 expression on the cell membrane
C[C@@H]1C[C@@H]([C@H](O)CC2CC(=O)NC(=O)C2)C(=O)[C@@H](C)C1 [cyclohexamide] | completely blocked
Cc1c2oc3c(C)ccc(C(=O)N[C@@H]4C(=O)N[C@H](C(C)C)C(=O)N5CCC[C@H]5C(=O)N(C)CC(=O)N(C)[C@@H](C(C)C)C(=O)O[C@@H]4C)c3nc-2c(C(=O)N[C@@H]2C(=O)N[C@H](C(C)C)C(=O)N3CCC[C@H]3C(=O)N(C)CC(=O)N(C)[C@@H](C(C)C)C(=O)O[C@@H]2C)c(N)c1=O [actinomycin D] (I: T[dV]P[Sar][NMeV] / II: T[dV]P[Sar][NMeV]; ester I:1-I:C, II:1-II:C; linker I:N-II:N via Actinocin(9to1)) | not significantly inhibited
C[C@H]1CCC/C=C/[C@@H]2C[C@H](O)C[C@H]2[C@H](O)/C=C/C(=O)O1 [brefeldin A] | completely blocked
